{"source": "patent US20240398771A1", "about": "“TREATMENT OF SCLERODERMA AND RAYNAUD'S SYNDROME” (Aisa Pharma, Inc., priority 2023, published 2024)", "test_system": "participants with SSc-RP", "assay": "Average duration of weekly symptomatic RP attacks (minutes)", "format": "in vivo, human", "details": "ITT Part A", "source_text": "The relevant metrics measured by this tool daily are: • Study medication • SSc-RP symptoms (Reporting an attack including duration of attack) • Severity of the attack considering all symptoms of the attack e.g. tingling, numbness, pain, color changes (VAS 0-10 cm scale) • Participant's location at the time of the attack (inside home/outside home) • Selecting symptoms experienced during the attack (tingling, numbness, pain, color changes, other) • Pain rating during the attack (11-point Likert scale) • The RCS based on how much difficulty participants had with Raynaud's today, how many attacks the participant had, and how long they lasted. Participants will also be asked to consider how much pain, numbness, or other symptoms the Raynaud's caused in fingers (including painful sores), and how much the Raynaud's alone affected the use of hands today (VAS 0-10 cm scale).\nThe absolute change in average duration of weekly RP attacks from baseline to the end of each dosing period was and will be a secondary outcome variable. The sponsor-developed participant-informed diary was and will be used to record data. Average duration of weekly RP attacks is defined as the total duration of RP attacks divided by total number of RP attacks within the last 7 days of each dosing period. Total duration of RP attacks during the last 7 days of screening period divided by the total number of RP attacks will be used as baseline for the analysis of all periods. The variable will be calculated similar to frequency data as before.", "key": {"[1]": {"details": "Excluding Outliers, Baseline RCS subgroup 1 (Table B-4, stratum not given), last 7 days of dosing period, listed as Cilnidipine 10 mg"}, "[2]": {"details": "Excluding Outliers, Baseline RCS subgroup 1 (Table B-4, stratum not given), last 7 days of dosing period, listed as Cilnidipine 20 mg"}, "[3]": {"details": "Excluding Outliers, Baseline RCS subgroup 1 (Table B-4, stratum not given), last 7 days of dosing period, listed as Pooled Cilnidipine"}, "[4]": {"details": "Excluding Outliers, Baseline RCS subgroup 1 (Table B-4, stratum not given), last 7 days of screening period, listed as Cilnidipine 10 mg"}, "[5]": {"details": "Excluding Outliers, Baseline RCS subgroup 1 (Table B-4, stratum not given), last 7 days of screening period, listed as Cilnidipine 20 mg"}, "[6]": {"details": "Excluding Outliers, Baseline RCS subgroup 1 (Table B-4, stratum not given), last 7 days of screening period, listed as Pooled Cilnidipine"}, "[7]": {"details": "Baseline RCS subgroup 1 (Table B-3, stratum not given), last 7 days of dosing period, listed as Cilnidipine 10 mg"}}, "data": [{"smiles": "COCCOC(=O)C1=C(C)NC(C)=C(C(=O)OC/C=C/c2ccccc2)C1c1cccc([N+](=O)[O-])c1", "note": "(stereo not shown) [Cilnidipine, 1,4-dihydro-2,6-dimethyl,4-(3-nitrophenyl)-3,5-pyridinedicarboxylic acid 2-methoxyethyl (2 E)-3-phenyl-2-propenyl ester]", "values": [{"measurement": "Average Duration of weekly symptomatic RP attacks, Max", "setting": "[1]", "value": "31.6, 31.6 minutes"}, {"measurement": "Average Duration of weekly symptomatic RP attacks, Mean", "setting": "[1]", "value": 31.64, "unit": "min"}, {"measurement": "Average Duration of weekly symptomatic RP attacks, Min", "setting": "[1]", "value": "31.6, 31.6 minutes"}, {"measurement": "Average Duration of weekly symptomatic RP attacks, Q3", "setting": "[1]", "value": "31.64, 31.64 minutes"}, {"measurement": "Average duration of weekly symptomatic RP attacks, Change from Baseline, Max", "setting": "[1]", "value": "−16.7, −16.7 minutes"}, {"measurement": "Average duration of weekly symptomatic RP attacks, Change from Baseline, Min", "setting": "[1]", "value": "−16.7, −16.7 minutes"}, {"measurement": "Average duration of weekly symptomatic RP attacks, Change from Baseline, Q1", "setting": "[1]", "value": "−16.74, −16.74 minutes"}, {"measurement": "Average duration of weekly symptomatic RP attacks, Percent Change from Baseline, Max", "setting": "[1]", "value": "−34.6, −34.6%"}, {"measurement": "Average Duration of weekly symptomatic RP attacks", "setting": "[2]", "value": 3.0, "unit": "min"}, {"measurement": "Average Duration of weekly symptomatic RP attacks, Max", "setting": "[2]", "value": 30.5, "unit": "min"}, {"measurement": "Average Duration of weekly symptomatic RP attacks, Q1", "setting": "[2]", "value": 3.00, "unit": "min"}, {"measurement": "Average Duration of weekly symptomatic RP attacks, Q3", "setting": "[2]", "value": 30.45, "unit": "min"}, {"measurement": "Average duration of weekly symptomatic RP attacks, Change from Baseline", "setting": "[2]", "value": -10.3, "unit": "min"}, {"measurement": "Average duration of weekly symptomatic RP attacks, Change from Baseline, Max", "setting": "[2]", "value": 4.1, "unit": "min"}, {"measurement": "Average duration of weekly symptomatic RP attacks, Change from Baseline, Mean", "setting": "[2]", "value": -3.13, "unit": "min"}, {"measurement": "Average duration of weekly symptomatic RP attacks, Change from Baseline, Median", "setting": "[2]", "value": -3.13, "unit": "min"}, {"measurement": "Average duration of weekly symptomatic RP attacks, Change from Baseline, Q1", "setting": "[2]", "value": -10.33, "unit": "min"}, {"measurement": "Average duration of weekly symptomatic RP attacks, Change from Baseline, Q3", "setting": "[2]", "value": 4.07, "unit": "min"}, {"measurement": "Average duration of weekly symptomatic RP attacks, Percent Change from Baseline, Max", "setting": "[2]", "value": 15.4, "unit": "%"}, {"measurement": "Average duration of weekly symptomatic RP attacks, Percent Change from Baseline, Mean", "setting": "[2]", "value": "−31.05", "unit": "%"}, {"measurement": "Average duration of weekly symptomatic RP attacks, Percent Change from Baseline, Median", "setting": "[2]", "value": "−31.05", "unit": "%"}, {"measurement": "Average duration of weekly symptomatic RP attacks, Percent Change from Baseline, Min", "setting": "[2]", "value": "−77.5", "unit": "%"}, {"measurement": "Average duration of weekly symptomatic RP attacks, Percent Change from Baseline, Q1", "setting": "[2]", "value": "−77.50", "unit": "%"}, {"measurement": "Average duration of weekly symptomatic RP attacks, Percent Change from Baseline, Q3", "setting": "[2]", "value": 15.41, "unit": "%"}, {"measurement": "Average Duration of weekly symptomatic RP attacks", "setting": "[3]", "value": 3.0, "unit": "min"}, {"measurement": "Average Duration of weekly symptomatic RP attacks, Max", "setting": "[3]", "value": 31.6, "unit": "min"}, {"measurement": "Average Duration of weekly symptomatic RP attacks, Q1", "setting": "[3]", "value": 3.00, "unit": "min"}, {"measurement": "Average duration of weekly symptomatic RP attacks, Change from Baseline", "setting": "[3]", "value": -16.7, "unit": "min"}, {"measurement": "Average duration of weekly symptomatic RP attacks, Change from Baseline, Max", "setting": "[3]", "value": 4.1, "unit": "min"}, {"measurement": "Average duration of weekly symptomatic RP attacks, Change from Baseline, Mean", "setting": "[3]", "value": -7.67, "unit": "min"}, {"measurement": "Average duration of weekly symptomatic RP attacks, Change from Baseline, Q1", "setting": "[3]", "value": -16.74, "unit": "min"}, {"measurement": "Average duration of weekly symptomatic RP attacks, Change from Baseline, Q3", "setting": "[3]", "value": 4.07, "unit": "min"}, {"measurement": "Average duration of weekly symptomatic RP attacks, Percent Change from Baseline, Max", "setting": "[3]", "value": 15.4, "unit": "%"}, {"measurement": "Average duration of weekly symptomatic RP attacks, Percent Change from Baseline, Mean", "setting": "[3]", "value": "−32.23", "unit": "%"}, {"measurement": "Average duration of weekly symptomatic RP attacks, Percent Change from Baseline, Median", "setting": "[3]", "value": "−34.60", "unit": "%"}, {"measurement": "Average duration of weekly symptomatic RP attacks, Percent Change from Baseline, Min", "setting": "[3]", "value": "−77.5", "unit": "%"}, {"measurement": "Average duration of weekly symptomatic RP attacks, Percent Change from Baseline, Q1", "setting": "[3]", "value": "−77.50", "unit": "%"}, {"measurement": "Average duration of weekly symptomatic RP attacks, Percent Change from Baseline, Q3", "setting": "[3]", "value": 15.41, "unit": "%"}, {"measurement": "Average duration of weekly symptomatic RP attacks, Baseline, Max", "setting": "[4]", "value": "48.4, 48.4 minutes"}, {"measurement": "Average duration of weekly symptomatic RP attacks, Baseline, Mean", "setting": "[4]", "value": 48.38, "unit": "min"}, {"measurement": "Average duration of weekly symptomatic RP attacks, Baseline, Median", "setting": "[4]", "value": 48.38, "unit": "min"}, {"measurement": "Average duration of weekly symptomatic RP attacks, Baseline, Min", "setting": "[4]", "value": "48.4, 48.4 minutes"}, {"measurement": "Average duration of weekly symptomatic RP attacks, Baseline, Q1", "setting": "[4]", "value": "48.38, 48.38 minutes"}, {"measurement": "Average duration of weekly symptomatic RP attacks, Baseline, Q3", "setting": "[4]", "value": "48.38, 48.38 minutes"}, {"measurement": "Average duration of weekly symptomatic RP attacks, Baseline", "setting": "[5]", "value": 13.3, "unit": "min"}, {"measurement": "Average duration of weekly symptomatic RP attacks, Baseline, Max", "setting": "[5]", "value": 26.4, "unit": "min"}, {"measurement": "Average duration of weekly symptomatic RP attacks, Baseline, Mean", "setting": "[5]", "value": 19.86, "unit": "min"}, {"measurement": "Average duration of weekly symptomatic RP attacks, Baseline, Median", "setting": "[5]", "value": 19.86, "unit": "min"}, {"measurement": "Average duration of weekly symptomatic RP attacks, Baseline, Q1", "setting": "[5]", "value": 13.33, "unit": "min"}, {"measurement": "Average duration of weekly symptomatic RP attacks, Baseline, Q3", "setting": "[5]", "value": 26.39, "unit": "min"}, {"measurement": "Average duration of weekly symptomatic RP attacks, Baseline", "setting": "[6]", "value": 13.3, "unit": "min"}, {"measurement": "Average duration of weekly symptomatic RP attacks, Baseline, Max", "setting": "[6]", "value": 48.4, "unit": "min"}, {"measurement": "Average duration of weekly symptomatic RP attacks, Baseline, Mean", "setting": "[6]", "value": 29.37, "unit": "min"}, {"measurement": "Average duration of weekly symptomatic RP attacks, Baseline, Median", "setting": "[6]", "value": 26.39, "unit": "min"}, {"measurement": "Average duration of weekly symptomatic RP attacks, Baseline, Q1", "setting": "[6]", "value": 13.33, "unit": "min"}, {"measurement": "Average duration of weekly symptomatic RP attacks, Baseline, Q3", "setting": "[6]", "value": 48.38, "unit": "min"}, {"measurement": "Average Duration of weekly symptomatic RP attacks, Max", "setting": "[7]", "value": "31.6, 31.6 minutes"}, {"measurement": "Average Duration of weekly symptomatic RP attacks, Min", "setting": "[7]", "value": "31.6, 31.6 minutes"}]}]}
